In patent US8940765B2, “N-linked quinolineamide M1 receptor positive allosteric modulators” (Merck Sharp & Dohme Corp., priority 2011, dated 2015):

Molecular target: T1, acetylcholine muscarinic M1 receptor (Homo sapiens, UniProt P11229)
T1 construct: expressed in transfected cells; host or cells: CHOnfat cells (CHO with NFAT reporter background) stably expressing hM1, Geneticin selection
T1 sequence (P11229 1-460): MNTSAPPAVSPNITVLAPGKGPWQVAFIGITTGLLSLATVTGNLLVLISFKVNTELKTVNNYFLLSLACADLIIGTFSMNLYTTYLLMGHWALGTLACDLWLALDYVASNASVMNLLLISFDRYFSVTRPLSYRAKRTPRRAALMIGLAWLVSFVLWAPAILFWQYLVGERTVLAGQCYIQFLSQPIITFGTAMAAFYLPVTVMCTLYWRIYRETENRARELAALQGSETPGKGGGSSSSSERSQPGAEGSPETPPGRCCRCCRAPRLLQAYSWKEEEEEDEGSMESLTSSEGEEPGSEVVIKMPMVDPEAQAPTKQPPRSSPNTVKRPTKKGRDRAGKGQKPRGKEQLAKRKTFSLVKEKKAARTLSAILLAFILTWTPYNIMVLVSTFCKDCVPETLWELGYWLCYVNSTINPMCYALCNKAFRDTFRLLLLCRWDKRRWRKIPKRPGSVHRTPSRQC
Assay: muscarinic FLIPR assay: intracellular calcium in CHOnfat/hM1 cells, potentiation of EC20 acetylcholine
Type: cell-based
Conditions: FLIPR Ca2+, 4 min preincubation, then EC20 acetylcholine (3 nM final), read-out: IP Value (inflection point)
Experimental: The assay studies the effect of one or several concentrations of test compounds on basal or acetylcholine-stimulated Ca^2+ levels using FLIPR.
Compounds are prepared and subjected to a preincubation period of 4 min. Thereafter, a single EC20 concentration of acetylcholine is added to each well (3 nM final). The intracellular Ca^2+ level of each sample is measured and compared to an acetylcholine control to determine any modulatory activity.
Cells: CHOnfat/hM1, hM2, hM3 or hM4 cells are plated 24 hr before the assay at a density of 18,000 cells/well (100 μL) in a 384 well plate. CHOnfat/hM1 and CHOnfat/hM3 Growth Medium: 90% DMEM (Hi Glucose); 10% HI FBS; 2 mM L-glutamine; 0.1 mM NEAA; Pen-Strep; and 1 mg/ml Geneticin, are added. For M2Gqi5CHOnfat and M4Gqi5CHOnfat cells, an additional 600 ug/ml hygromycin is added.
Equipment: 384 well plate, 120 μL addition plate; 96-well Whatman 2 ml Uniplate Incubator, 37° C., 5% CO2; Skatron EMBLA-384 Plate Washer; Multimek Pipetting System; Genesis Freedom 200 System; Mosquito System; Temo Nanoliter Pipetting System; and FLIPR384 Fluorometric Imaging Plate Reader System are used.
Buffers. Assay Buffer: Hanks Balanced Salt Solution, with 20 mM Hepes, 2.5 mM Probenecid (Sigma P-8761) first dissolved in 1 N NaOH, 1% Bovine Serum Albumin (Sigma A-9647). Dye Loading Buffer: Assay Buffer plus 1% Fetal Bovine Serum and Fluo-4AM/Pluronic Acid Mixture. 2 mM Fluo-4AM ester stock in DMSO (Molecular Probes F-14202) Concentration of 2 μM in buffer for a final concentration of 1 μM in Assay. 20% Pluronic Acid Solution stock, with concentration of 0.04% in Buffer, 0.02% in Assay.
65 μl, of 2 mM Fluo-4AM are mixed with 130 μL of 20% Pluronic Acid. The resulting solution and 650 μL FBS is added to the assay buffer for a total volume of 65 mL. Positive Controls: 4-Br-A23187: 10 mM in DMSO; final concentration 10 μM. Acetylcholine: 10 mM in water, working stock at both 20 μM and 30 μM in assay buffer, final concentration of 10 μM. This is used to check the maximum stimulation of the CHOK1/hM1 cells. 20 μM (2×) acetylcholine is added in the preincubation part of the assay, and the 30 μM (3×) stock is added in the second part. (EC20)Acetylcholine: 10 mM in water, working stock of 9 nM (3×), and final concentration in assay is 3 nM. This is used after the preincubation with test compounds. Addition of the EC20 Acetylcholine to each well with a test compound will ascertain any modulator activity. 24 wells contain 3 nM Acetylcholine alone as a control.
Determining Activity of Putative Compounds:
Screening Plate: Compounds are titrated in 96-well plates (columns 2-11), 100% DMSO, started at a concentration of 15 mM (150× stock concentration), and 3-fold serial dilutions using Genesis Freedom200 System. Four 96-well plates are combined into a 384-well plate using Mosquito Nanoliter Pipetting System by transferring 1 μl of serial diluted compounds to each well, and 1 mM acetylcholine (100× stock concentration) were added as a control. Using Temo, 49 μl assay buffer is added to each well of the 384-well plate right before assay.
In a 96-well Whatman 2 ml Uniplate, 9 nM Acetylcholine (3×) is pipetted into wells corresponding to the screening compounds, and into control wells. The 30 μM acetylcholine control (3×) is added into control wells, and the 3× agonist plate is transferred into a 384 well plate.
Cells are washed three times with 100 μL of buffer, leaving 30 μL of buffer in each well. Using Multimek, 30 μl, of Dye Loading Buffer is added into each well and incubated at 37° C., 5% CO2 for up to one hr.
After […], the cells are washed three times with 100 μL of buffer, leaving 30 μL of buffer in each well. The cell plate, screening plate, and agonist addition plates are placed on the platform in the FLIPR and the door closed. A signal test to check background fluorescence and basal fluorescence signal is performed. Laser intensity is adjusted if necessary. […]

Structure (SMILES) | EC50 [nM]
N#CC1(c2cccnc2)CCN(Cc2cc(C(=O)N[C@H]3CCCC[C@@H]3O)nc3ccccc23)CC1 [Example 9, 4-[(4-cyano-4-pyridin-3-ylpiperidin-1-yl)methyl]-N-[(1S,2S)-2-hydroxycyclohexyl]quinoline-2-carboxamide] | 54
N#CC1(c2ccccc2Cl)CCN(Cc2cc(C(=O)N[C@H]3CCCC[C@@H]3O)nc3ccccc23)CC1 [Example 6, 4-{[4-(2-chlorophenyl)-4-cyanopiperidin-1-yl]methyl}-N-[(1S,2S)-2-hydroxycyclohexyl]quinoline-2-carboxamide] | 117
Cc1ccccc1C1(C#N)CCN(Cc2cc(C(=O)N[C@H]3CCCC[C@@H]3O)nc3ccccc23)CC1 [Example 7, 4-{[4-cyano-4-(2-methylphenyl)piperidin-1-yl]methyl}-N-[(1S,2S)-2-hydroxycyclohexyl]quinoline-2-carboxamide] | 136
N#CC1(c2ccccc2F)CCN(Cc2cc(C(=O)N[C@H]3CCCC[C@@H]3O)nc3ccccc23)CC1 [Example 5, 4-{[4-cyano-4-(2-fluorophenyl)piperidin-1-yl]methyl}-N-[(1S,2S)-2-hydroxycyclohexyl]quinoline-2-carboxamide] | 81
Cc1ccnc(C2(C#N)CCN(Cc3cc(C(=O)N[C@H]4CCCC[C@@H]4O)nc4ccccc34)CC2)c1 [Example 3, 4-{[4-cyano-4-(4-methylpyridin-2-yl)piperidin-1-yl]methyl}-N-[(1S,2S)-2-hydroxycyclohexyl]quinoline-2-carboxamide] | 20
N#CC1(c2ccccn2)CCN(Cc2cc(C(=O)N[C@H]3CCCC[C@@H]3O)nc3ccccc23)CC1 [Example 1, 4-[(4-cyano-4-pyridin-2-ylpiperidin-1-yl)methyl]-N-[(1S,2S)-2-hydroxycyclohexyl]quinoline-2-carboxamide] | 54
Cn1cc(N2CCN(Cc3cc(C(=O)N[C@H]4CCCC[C@@H]4O)nc4ccccc34)CC2)cn1 [Example 2, N-[(1S,2S)-2-hydroxycyclohexyl]-4-{[4-(1-methyl-1H-pyrazol-4-yl)piperazin-1-yl]methyl}quinoline-2-carboxamide] | 369
N#CC1(c2ccccc2)CCN(Cc2cc(C(=O)N[C@H]3CCCC[C@@H]3O)nc3ccccc23)CC1 [Example 4, 4-[(4-cyano-4-phenylpiperidin-1-yl)methyl]-N-[(1S,2S)-2-hydroxycyclohexyl]quinoline-2-carboxamide] | 325
Cc1ccnc(C2(C#N)CCN(Cc3cc(C(=O)N[C@H]4CCOC[C@@H]4O)nc4ccccc34)CC2)c1 [Example 8, 1,5-anhydro-3-{[(4-{[4-cyano-4-(4-methylpyridin-2-yl)piperidin-1-yl]methyl}quinolin-2-yl)carbonyl]amino}-2,3-dideoxy-L-threo-pentitol] | 27
